Entries after “also recorded” stand apart in the source; their conditions may differ.
Legend:
[1] = tested on: immobilized human muscles; test: Bed rest study in healthy older adult humans; type: in vivo; settings: healthy older adults, 10 days bed rest, 200 mg a day
Description: Two groups of healthy older adult humans (e.g., N=10 per group) who are moderately active remain in bed continuously for 10 days, except for toileting, and they consume a eucaloric diet providing the recommended dietary allowance for protein (0.8 g/kg of protein per day). […] Measurements before and after bed rest include muscle function and protein synthesis.

[2] = tested on: 79-HMC; test: Proliferation of immortalized human muscle cells, older donor; type: cell-based; settings: for cell proliferation (measured at day 4): older subject cells
Method: (§1) Immortalized human cells from male donors (25-HMC) […] (79-HMC) are grown from the proliferation stage until they become 80% confluent, differentiate, and become myotubes. […] Early proliferation markers (Pax7, Myf5, MyoD, and MyoG were assessed via RT-PCR (FIG. 8D to 8K)

[3] = tested on: pAkt; test: Western blot of pAkt in soleus after oral BGE-105; type: in vivo; settings: mice, oral 45 mg/kg, vs vehicle
Description: (§2) Administration of an apelin receptor agonist can induce the phosphorylation and activation of AMPK in heart tissue. Tissue samples were lysed using T-PER tissue protein extraction reagent (Thermo Fisher Scientific #78510) containing EDTA and protease/phosphatase inhibitors on the Omni Bead Ruptor 12 Homogenizer. Total protein was extracted then quantified using Pierce™ BCA Protein Assay Kit. Loaded equal amounts of total protein per lane on a 4-12% SDS-PAGE gel and transferred to PVDF membrane. Membranes were blocked and blotted with anti-phospho-AMPKα-Thr172 (Cell Signaling Technology, CST #2535), total-AMPKα (CST #2532), anti-phospho-Akt-SeR^473 (CST #4060), total-Akt (CST #4685), anti-phospho-ERK-1/2-Thr202/Tyr204 of Erk1 and Thr185/Tyr187 of Erk2 (CST #4370), total-ERK-1/2 (CST #9107) or anti-APLNR receptor (abcam, ab214369) antibodies. Band intensities were normalized to loading control anti-β-Actin (CST #3700) or anti-GAPDH (abcam, ab181602) antibodies. Immunoreactive proteins were detected using SuperSignal™ West Femto Substrate (Thermo Fisher Scientific #34095) and quantified by Image Lab™ software (Bio-Rad Laboratories, Inc.).
Apelin can induce the phosphorylation of Akt in the soleus muscle and improve glucose homeostasis. […]

[4] = tested on: Twenty-month-old male C57/B16 mice; test: Disuse-induced muscle atrophy (hindlimb casting) in aged mice; type: in vivo
Description: Limb immobilization causes a loss of gross skeletal muscle mass accompanied by a significant decrease in apelin transcript levels.
One week into the treatment, mice underwent modified hindlimb casting on one limb. Mice were anesthetized with isoflurane inhalation and the hindlimb wiped with povidone-iodine, then ethanol, and loosely wrapped in surgical gauze. A custom-made plastic immobilization device was placed on the limb, with the foot in full extension, so as to result in the maximal in vivo unloading of the plantarflexor group. The device was fixed to the hindlimb using Vetbond and the animal returned to its cage. After 3 weeks of treatment following casting, mice were euthanized 1 hour after the final ZT1 dose, and tissues isolated, weighed, then flash frozen in liquid nitrogen for subsequent western blot analysis.

[5] = tested on: phosphorylation of Akt; test: Western blot of Akt phosphorylation in rat tibialis anterior; type: in vivo; settings: rats
Description: as §2
The difference between tissues was conserved among rodent species: In rats, as in mice, apelin receptor levels in rat tissue were 2-fold higher in heart than in soleus, FIGS. 5A-5B. […]

[6] = tested on: aged (24-month-old) C57BL/6 mice; test: Activity monitoring wheel test (frailty study); type: in vivo; settings: 24-month-old mice
Method: The animals were housed with access to voluntary running wheels that wirelessly transmit running data to a computer for analysis. Voluntary running wheel activity levels were measured daily, and body weights were measured every 2 weeks.
The study concluded on Study Day 83. Activity wheel monitoring started on Study Day 1 and ended on Study Day 83 (Phase Day 64). The data was analyzed at the end of the study. […] For the frailty portion of the study, mice were assessed using an activity monitoring wheel which was monitored passively with a computer monitoring system. […]
The activity-monitoring wheel is a running disk that monitors rotations. […] Activity was monitored passively and wirelessly with a computer monitoring system. Running wheel activity levels were monitored daily. […] Mouse activity levels were measured as the number of wheel revolutions per day for each mouse and converted into a daily count of kilometers run using the diameter of the wheel. Within each experimental group, the daily median value for activity was calculated. […] The daily differences between the distances run in each group were calculated and tested for an increasing trend using Kendall's rank correlation tau.

[7] = tested on: 25-HMC; test: Proliferation of immortalized human muscle cells, younger donor; type: cell-based; settings: for cell proliferation (measured at day 4): younger subject cells
Method: as §1

[8] = pH of BGE-105 dissolved in deionized water; type: physicochemical; settings: 275 ug/mL in deionized water
Method: BGE-105 was administered in drinking water consumed ad libitum. The compound is mildly acidic when dissolved, resulting in a pH 4.5 solution. The deionized water was adjusted to pH 8.5 by adding 1N NaOH. The vehicle control group consumed water (ad libitum) of the same pH without drug.

[9] = 20-month-old immobilized mice, 50 mg/kg BID, 50 mg/kg

COc1cccc(OC)c1-n1c(NS(=O)(=O)[C@@H](C)[C@H](C)c2ncc(C)cn2)nnc1-c1cncc(C)c1 [BGE-105, (2S,3R)—N-(4-(2,6-dimethoxyphenyl)-5-(5-methyl-3-pyridinyl)-4H-1,2,4-triazol-3-yl)-3-(5-methyl-2-pyrimidinyl)-2-butanesulfonamide]
muscle atrophy in immobilized human muscles [1]: prevent or attenuate muscle atrophy
cell proliferation, short-term treatment ([2]; aged donor cells, day 0 to day 4 post seeding): significant increase of cell proliferation
cell proliferation (measured at day 4) ([2]; 5 nM): significant increase in cell proliferation
cell proliferation (measured at day 4) ([2]; 50 nM): increase
pAkt levels in the soleus [3]: increased levels; also recorded: marginally significant increase
extensor digitorum longus (EDL) muscle weight / atrophy [4, 9]: did not measurably atrophy; also recorded: near significant improvement in muscle weight; also recorded: near significant decrease in the percent atrophy
gastrocnemius atrophy [4, 9]: less effective; also recorded: no improvement
soleus muscle weight / atrophy [4, 9]: modest rescue in atrophy; also recorded: near significant improvement in muscle weight; also recorded: marginal improvement in the percent atrophy
tibialis anterior muscle weight / percent atrophy vs vehicle [4, 9]: significant improvement in maintaining muscle weight; also recorded: significant decrease in the percent atrophy
decrease in wet weight of tibialis anterior (TA) muscle ([4]; casted limb, 50 mg/kg BID P.O., 21 days immobilization): 3%
muscle atrophy / loss of muscle mass induced by immobilization ([4]; immobilized aged mice, orally dosed, vs vehicle): significantly reduced muscle atrophy; also recorded: protected against some loss of muscle mass
phosphorylation of Akt in TA ([5]; oral 50 mg/kg BID, 5 consecutive days): strongest response
phosphorylation of Akt in TA ([5]; oral dosing 5 consecutive days, across doses): dose-dependent manner
voluntary running wheel activity vs age-matched controls ([6]; 275 ug/mL in drinking water ad libitum, 64 days): statistically significant increase in voluntary motor activity; also recorded: significantly more active; also recorded: decreased significantly less
distance run more than vehicle-treated mice at end of experimental period ([6]; 275 ug/mL in drinking water, both experiments, on average): at least 1 km/day
cell proliferation, short-term treatment ([7]; young donor cells, day 0 to day 4 post seeding): significant increase of cell proliferation
cell proliferation (measured at day 4) ([7]; 5 nM): increase
cell proliferation (measured at day 4) ([7]; 50 nM): significant increase in cell proliferation
pH of solution when dissolved [8]: 4.5

— US20240252493A1, “Apelin Receptor Modulators for Treating Age-Related Muscle Conditions” (BIOAGE LABS, INC., priority 2021, published 2024)
